Structures are written as SMILES.

Data set [1] deals with C57BL/6J mouse right lower limb gastrocnemius. The data set can be described thus: DNA mutation introduction efficiency using mRosa26 gRNA (T7E1 assay) after local administration. It is filed as in vivo. The method, then:
Cas9 protein (20 μg), mRosa26 gRNA (5 μg), 10×PBS (5 μL) and a 2.0 M aqueous 2′-deoxycytidine solution (6.25 μL) were mixed so as to obtain an aqueous solution having final concentrations of 400 ng/μL Cas9 protein, 100 ng/μL mRosa26 gRNA, 533 mM sodium chloride and 250 mM 2′-deoxycytidine. The concentration of the resultant solution was adjusted to be 533 mM with a 5 M aqueous sodium chloride solution, diluted with UltraPure DNase/RNase-Free Distilled Water up to a liquid volume of 50 μL and incubated at normal temperature for 15 minutes. […] The Cas9 protein herein was subjected to buffer replacement with 250 mM sodium chloride by use of Amicon® Ultra 2 mL Centrifugal Filters and then put in use.
Cas9 protein (40 μg), mRosa26 gRNA (10 μg), 10×PBS (5 μL), and a […] compound stock solution (25 μL) were mixed so as to obtain final concentrations: 800 ng/μL Cas9 protein, 200 ng/μL mRosa26 gRNA, 533 mM sodium chloride and 250 mM compound. […]
To the right lower limb gastrocnemius of each of 9 weeks-old male C57BL/6J mice (CLEA Japan, Inc), administration solution 1 or administration solution 2 and PBS (50 μL) were administered. […] The resultant PCR product was purified by QIAquick PCR purification kit (QIAGEN), treated with T7 Endonuclease I (NEB) and analyzed by Agilent 4200 TapeStation (Agilent). […]
As shown in FIG. 10 and FIG. 11, to find statistical significant difference between GABA and each conditions of the compounds, Dunnett's multiple comparison test using DNA mutation introduction efficiency, Indel (%), and exon skipping efficiency, was carried out. It was determined that if P value is less than 0.05, these is a statistically significant difference. […]
A solution for transduction containing 2′-deoxycytidine as a compound (A3) and sodium chloride as the (B) salt was prepared. […] Administration solution 1 was locally administered to the mouse right lower limb gastrocnemius and the activity to cleave a target gene was evaluated. […]

The test system of data set [2] is EGFP reporter cells (C2C12 cells). Put plainly: EGFP-SSA assay: uptake of Cas9 protein/gRNA complex into cells (EGFP positive rate). As to conditions: Example 1; compound 100.0 mM; reaction solution 1 (550 mM sodium chloride, 1 mM HEPES, Cas9 protein/gRNA), 30 minutes. It is filed as cell-based, mouse.
For data set [3] the test system is unchanged. The data set can be described thus: Number of HOECHST cells detected (cell viability) in the EGFP-SSA assay. The note with it: Example 1, formula (2).
Description: To each of the solutions, a complex of gRNA and Cas9 protein was further dissolved. Mouse myoblasts (C2C12 cells) were contacted with each of the solutions in vitro, and target gene cleavage activity and cell viability were evaluated.
Data set [4] shares this test system. Put plainly: EGFP-SSA assay: uptake of Cas9 protein/gRNA complex into cells (EGFP positive rate). It is filed as cell-based, mouse. As to conditions: Example 1; compound 250.0 mM; reaction solution 1 (550 mM sodium chloride, 1 mM HEPES, Cas9 protein/gRNA), 30 minutes.
Source text: EGFP-SSA assay: an abbreviation of EGFP-single strand annealing assay. The reporter cassette shown in FIG. 1 is inserted in EGFP reporter cells. In the middle of the EGFP sequence of the cassette, MmDMD-Ex51 sequence is inserted. Since the presence of MmDMD-Ex51 sequence, by which EGFP ORF is divided, EGFP protein is not usually translated. However, when target sequence of MmDMD-Ex51 is cleaved by Cas9 protein/gRNA complex, the upstream region (EG part) and the downstream region (FP part) of EGFP ORF are annealed via a homology area into a single strand, with the result that a full-length EGFP ORF emerges to produce EGFP protein. Based on this principle, the ratio of the number of cells producing EGFP is checked by the EGFP-SSA assay. In this manner, the amount of Cas9 protein/gRNA complex delivered to cells can be predicted.
(§1) Cas9 protein (0.4 μg), tracrRNA (34.18 ng), MmDmd Ex51 crRNA (29.48 ng), a 1 M HEPES buffer (0.05 μL) and a 5 M aqueous sodium chloride solution (5.5 μL) were mixed and diluted with UltraPure DNase/RNase-Free Distilled Water up to a liquid volume of 37.5 μL so as to obtain final concentrations: 8 ng/μL Cas9 protein, 0.68 ng/μL tracrRNA, 0.59 ng/μL MmDmd Ex51 crRNA, 1 mM HEPES, 550 mM sodium chloride, and 250 mM compound. To this solution, a 1000 mM compound solution (12.5 μL) was added and the solution mixture was incubated at normal temperature for 15 minutes.
as §1, with “buffer (2.5” for “buffer (0.05”, “solution (4.85” for “solution (5.5”, “crRNA, 50” for “crRNA, 1”, “HEPES, 485” for “HEPES, 550”, “minutes. Note that, in the cases where the final concentrations of the compound are 0.69 mM, 25 mM, 100 mM, 125 mM, 160 mM, 200 mM and 500 mM, the compound stock solution was diluted with UltraPure DNase/RNase-Free Distilled Water up to concentrations of 2.76 mM, 100 mM, 400 mM, 500 mM, 640 mM, 800 mM and 2000 mM, respectively, and then, added. […]” for “minutes.”
Cas9 protein (2.0 μg), tracrRNA (170.9 ng), MmDmd Ex51 crRNA (147.4 ng), a 1 M HEPES buffer (12.5 μL), a 5 M aqueous sodium chloride solution (18.35 μL) and a 1 M aqueous GABA solution (62.5 μL) were mixed, diluted with UltraPure DNase/RNase-Free Distilled Water up to a liquid volume of 250 μL so as to obtain final concentrations: 8 ng/μL Cas9 protein, 0.68 ng/μL tracrRNA, 0.59 ng/μL MmDmd Ex51 crRNA, 50 mM HEPES, 250 mM GABA and 367 mM sodium chloride, and incubated at normal temperature for 15 minutes. Note that the addition amount of the 5 M aqueous sodium chloride solution was changed to 24.25 μL in the case of 485 mM sodium chloride and the addition amount was changed to 27.5 μL in the case of 550 mM sodium chloride, respectively.

Consider `Nc1ccn([C@H]2C[C@H](O)[C@@H](CO)O2)c(=O)n1` [2′-Deoxycytidine], for which the “Genome editing (mutation introduction efficiency, indel (%))” value in data set [1] (Example 5, administration solution 1: 250 mM 2′-deoxycytidine, sodium chloride 163, 233, 333, 433 or 533 mM, mRosa26 gRNA/Cas9, 50 μL for 3 consecutive days, FIG. 9) is “Genome editing was confirmed”. The “Compound activity: EGFP positive rate (%)” value in data set [2] turned out to be 1.10%. Moreover, the “Relative ratio to GABA: Number of HOECHST cells” value in data set [3] (compound 100.0 mM vs 250 mM GABA positive control on the same plate) came out at 1.01.

Take `O=CC[C@@H](O)[C@H](O)[C@H](O)COP(=O)(O)O` [Oxy-D-glucose-6-phosphate, 2-deoxy-D-glucose-6-phosphate]: the “Compound activity: EGFP positive rate (%)” value in data set [4] came out at 1.38%. Besides, the “Genome editing efficiency (indel (%)) compared to 250 mM GABA” value in data set [1] (Example 6, administration solution 2: 25 mM or 250 mM 2′-deoxycytidine, 6-phospho-D-gluconic acid, N-carbamyl-L-aspartic acid or 2-deoxy-D-glucose-6-phosphate, 533 mM sodium chloride, 50 μL once, Dunnett's test, FIG. 10) is listed as “statistically significant results compared to GABA”. Further, in data set [3] (compound 250.0 mM vs 250 mM GABA positive control on the same plate), the “Relative ratio to GABA: Number of HOECHST cells” value was 1.06.

The values above are taken from US12673022B2, “Drug delivery system using solution” (Kyoto University, priority 2018, dated 2026).
